According to patent EP4778526A1, “ANTI-AGING AGENT, ORAL COMPOSITION FOR ANTI-AGING, AND USE OF COMPOUND” (Institute of Rheological Function of Food Co., Ltd., priority 2023, dated 2025):

What was measured:
[1] = test system: SIRT1; experiment: Test Example 1: real-time PCR of SIRT1 mRNA expression in HHORSCs cultured with KIT13; assay type: cell-based; settings: Human hair outer root sheath cells (HHORSCs), 5 µg/ml, 7 hours; mRNA normalized by 18S rRNA; vs culture medium not containing KIT13; FIG. 2
Description: (§1) Human hair outer root sheath cells (HHORSCs; manufactured by ScienCell Research Laboratories, #2420) were cultured for 7 hours in a culture medium containing 5 µg/ml of KIT13. As a culture medium for HHORSCs, a mesenchymal stem cell medium (manufactured by ScienCell Research Laboratories, #7501) was used. As a negative control, HHORSCs were cultured in a culture medium not containing KIT13.
(§2) RNA was extracted from cells using TRIzol (manufactured by Thermo Fisher Scientific). Subsequently, a first strand cDNA was prepared using PrimeScript RT Master Mix (manufactured by Takara), and mRNA expression of target genes and endogenous control genes was detected by real-time PCR using TB Green Premix Ex Taq II (manufactured by Takara) and T100 (trademark) Thermal Cycler (manufactured by BIO-RAD). The target genes were NAMPT, SIRT1, and NRF1, UQCRC1, and ATP5A1 whose expression is induced by activation of SIRT1 (Yuanyuan Huang, and ten others, "Resveratrol-induced Sirt1 phosphorylation by LKB1 mediates mitochondrial metabolism", J. Biol. Chem., 2021, 297(2), 100929). As the endogenous control gene, 18S ribosomal RNA (18S rRNA) was used, and measurement values of each gene were normalized by measurement values of 18S rRNA.

[2] = test system: ATP5A1; experiment: Test Example 1: real-time PCR of ATP5A1 mRNA expression in HHORSCs cultured with KIT13; assay type: cell-based; settings: Human hair outer root sheath cells (HHORSCs), 5 µg/ml, 7 hours; mRNA normalized by 18S rRNA; vs culture medium not containing KIT13; FIG. 5
Description: as §1, §2

[3] = test system: NRF1; experiment: Test Example 1: real-time PCR of NRF1 mRNA expression in HHORSCs cultured with KIT13; assay type: cell-based; settings: Human hair outer root sheath cells (HHORSCs), 5 µg/ml, 7 hours; mRNA normalized by 18S rRNA; vs culture medium not containing KIT13; FIG. 3
Description: as §1, §2

[4] = test system: SIRT1; experiment: Test Example 2: real-time PCR of SIRT1 mRNA expression in femoral muscle of mice given KIT13; assay type: in vivo; settings: four-week-old male c57BL6J mice, by drinking water, 20 µg/kg for four weeks; femoral muscles; mRNA normalized by β-actin; FIG. 7
Description: (§3) KIT13 was administered to four-week-old male c57BL6J mice (five mice per group, n = 5) by drinking water at a dose of 20 µg/kg for four weeks. Femoral muscles were collected from each mouse and analyzed as follows.
(§4) Femoral muscles were crushed by homogenization using 18G to 25G injection needles in Buffer A (0.25 M sucrose, 10 mM Hepes-KOH (pH 7.5), 1 mM EDTA, protease inhibitor cocktail), and RNA was extracted from the cells based on equal amounts of protein using TRIzol (manufactured by Thermo Fisher Scientific). Subsequently, a first strand cDNA was prepared using PrimeScript RT Master Mix (manufactured by Takara), and mRNA expression of target genes and endogenous control genes was detected by real-time PCR using TB Green Premix Ex Taq II (manufactured by Takara) and T100 (trademark) Thermal Cycler (manufactured by BIO-RAD). The target genes were NAMPT and SIRT1, and the endogenous control gene was β-actin. Measurement values of each gene were normalized by measurement values of β-actin.

[5] = test system: UQCRC1; experiment: Test Example 1: real-time PCR of UQCRC1 mRNA expression in HHORSCs cultured with KIT13; assay type: cell-based; settings: Human hair outer root sheath cells (HHORSCs), 5 µg/ml, 7 hours; mRNA normalized by 18S rRNA; vs culture medium not containing KIT13; FIG. 4
Description: as §1, §2

[6] = test system: NAMPT; experiment: Test Example 1: real-time PCR of NAMPT mRNA expression in HHORSCs cultured with KIT13; assay type: cell-based; settings: Human hair outer root sheath cells (HHORSCs), 5 µg/ml, 7 hours; mRNA normalized by 18S rRNA; vs culture medium not containing KIT13; FIG. 1
Description: as §1, §2

[7] = test system: NAMPT; experiment: Test Example 2: real-time PCR of NAMPT mRNA expression in femoral muscle of mice given KIT13; assay type: in vivo; settings: four-week-old male c57BL6J mice, by drinking water, 20 µg/kg for four weeks; femoral muscles; mRNA normalized by β-actin; FIG. 6
Description: as §3, §4

## CCCCC/C=C\C/C=C\C/C=C\C/C=C\CCCC(=O)O[C@H](COCCCCCCCCCCCCCCCCCC)COP(=O)(O)OCCN [KIT13]
[1]
  relative expression level of SIRT1: significantly increased
[2]
  relative expression level of ATP5A1: increased
[3]
  relative expression level of NRF1: increased
[4]
  relative expression level of SIRT1 in muscle: significantly increased
[5]
  relative expression level of UQCRC1: increased
[6]
  relative expression level of NAMPT: significantly increased
[7]
  relative expression level of NAMPT in muscle: significantly increased
